This passage reports Max % inhibition and IC50 results from patent US20230089867A1, “CYCLIC PENTAMER COMPOUNDS AS PROPROTEIN CONVERTASE SUBTILISIN/KEXIN TYPE 9 (PCSK9) INHIBITORS FOR THE TREATMENT OF METABOLIC DISORDER” (Novartis AG, priority 2018, published 2023).

This experiment concerns the target human PCSK9 (Homo sapiens, UniProt Q8NBP7). Nature of the experiment: PCSK9 ligand binding TR-FRET assay (interference with binding of human PCSK9 to human LDLR). Conditions: for Max % inhibition: PCSK9 FRET assay, efficacy (Amax), 100% = 1 uM unlabeled human PCSK9, 0% = DMSO; for pIC50: TR-FRET, human PCSK9 Alexa Fluor 647 / human LDLR extracellular domain-Europium Kryptate, read-out: PCSK9 FRET Assay IC50. The gist of the method:
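Threefold compound dilutions were pre-incubated 30 min with PCSK9, after which 4 nM Europium Kryptate-tagged human LDLR ectodomain was added for a further 2 h.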
For orientation: TR-FRET usually uses a lanthanide donor and a delayed reading to cut background.

Molecules are shown by their SMILES. pIC50: −log10 of the molar value.

Chain of human PCSK9 (Q8NBP7 153-692): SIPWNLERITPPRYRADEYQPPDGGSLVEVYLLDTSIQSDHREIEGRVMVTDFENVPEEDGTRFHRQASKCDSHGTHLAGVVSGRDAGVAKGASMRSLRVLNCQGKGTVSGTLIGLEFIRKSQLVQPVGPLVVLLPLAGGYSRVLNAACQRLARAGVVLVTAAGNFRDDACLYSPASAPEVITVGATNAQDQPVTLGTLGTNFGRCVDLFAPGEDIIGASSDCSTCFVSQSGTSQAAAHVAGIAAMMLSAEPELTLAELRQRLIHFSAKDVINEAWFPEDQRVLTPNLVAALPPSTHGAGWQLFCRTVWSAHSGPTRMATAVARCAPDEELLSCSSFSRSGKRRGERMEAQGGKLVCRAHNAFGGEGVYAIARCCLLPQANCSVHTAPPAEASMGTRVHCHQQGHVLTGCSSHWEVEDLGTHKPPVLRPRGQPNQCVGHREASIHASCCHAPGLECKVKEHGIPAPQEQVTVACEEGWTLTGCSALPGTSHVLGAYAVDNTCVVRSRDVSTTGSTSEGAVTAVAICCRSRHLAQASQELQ
Chain of human PCSK9 (Q8NBP7 31-152 partner limits assumed): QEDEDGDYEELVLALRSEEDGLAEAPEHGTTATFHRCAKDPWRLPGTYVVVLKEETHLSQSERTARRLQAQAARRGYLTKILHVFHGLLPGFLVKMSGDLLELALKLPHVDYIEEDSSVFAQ

`COC[C@@H]1NC(=O)[C@H](C)N(Cc2ccc(Cl)cc2Oc2ccc(-c3cnc(CN(C)C)n3C)cc2)C(=O)C[C@@H](Cc2ccccc2)C(=O)N(C)[C@@H](C)CNC(=O)C[C@H](Cc2ccc(Cl)cc2)N(C)C1=O` [Compound 126, (2S,5S,8S,13S,16R)-16-benzyl-1-(4-chloro-2-(4-(2-((dimethylamino)methyl)-1-methyl-1H-imidazol-5-yl)phenoxy)benzyl)-8-(4-chlorobenzyl)-5-(methoxymethyl)-2,7,13,14-tetramethyl-1,4,7,11,14-pentaazacyclooctadecane-3,6,10,15,18-pentaone]: the Max % inhibition is given as 101.12% and the pIC50 (as a rule, −log10 of the IC50, conventionally taken in molar units) is 8.82.
For the compound `COC[C@@H]1NC(=O)[C@H](C)N(Cc2ccc(Cl)cc2Oc2ccc(-n3cc(CN4CCCC4)nn3)cc2)C(=O)C[C@@H](Cc2ccccc2)C(=O)N(C)[C@@H](C)CNC(=O)C[C@H](Cc2ccc(Cl)cc2)N(C)C1=O` [Compound 127, (2S,5S,8S,13S,16R)-16-benzyl-1-(4-chloro-2-(4-(4-(pyrrolidin-1-ylmethyl)-1H-1,2,3-triazol-1-yl)phenoxy)benzyl)-8-(4-chlorobenzyl)-5-(methoxymethyl)-2,7,13,14-tetramethyl-1,4,7,11,14-pentaazacyclooctadecane-3,6,10,15,18-pentaone], the Max % inhibition is listed as 55.01% and the pIC50 is 8.11.
For the compound `COC[C@@H]1NC(=O)[C@H](C)N(Cc2ccc(Cl)cc2Oc2ccc(-n3cc(CN4CCCCC4)nn3)cc2)C(=O)C[C@@H](Cc2ccccc2)C(=O)N(C)[C@@H](C)CNC(=O)C[C@H](Cc2ccc(Cl)cc2)N(C)C1=O` [Compound 128, (2S,5S,8S,13S,16R)-16-benzyl-1-(4-chloro-2-(4-(4-(piperidin-1-ylmethyl)-1H-1,2,3-triazol-1-yl)phenoxy)benzyl)-8-(4-chlorobenzyl)-5-(methoxymethyl)-2,7,13,14-tetramethyl-1,4,7,11,14-pentaazacyclooctadecane-3,6,10,15,18-pentaone], the Max % inhibition is reported as 51.35% and the pIC50 was 7.69.
With `COC[C@@H]1NC(=O)[C@H](C)N(Cc2ccc(Cl)cc2Oc2ccc(-c3nnc4n3CCN(C(=O)[C@@H]3CCNC3)C4)cc2)C(=O)C[C@@H](Cc2ccccc2)C(=O)N(C)[C@@H](C)CNC(=O)C[C@H](Cc2ccc(Cl)cc2)N(C)C1=O` [Compound 129, (2S,5S,8S,13S,16R)-16-benzyl-1-(4-chloro-2-(4-(7-((R)-pyrrolidine-3-carbonyl)-5,6,7,8-tetrahydro-[1,2,4]triazolo[4,3-a]pyrazin-3-yl)phenoxy)benzyl)-8-(4-chlorobenzyl)-5-(methoxymethyl)-2,7,13,14-tetramethyl-1,4,7,11,14-pentaazacyclooctadecane-3,6,10,15,18-pentaone], the Max % inhibition is 94.48% and the pIC50 is 8.20.
Turning to `C[C@H]1CNC(=O)C[C@H](Cc2ccc(Cl)cc2)N(C)C(=O)[C@H](CO)NC(=O)[C@H](C)N(Cc2ccc(Cl)cc2Oc2ccc3c(c2)C(=O)N(C2CCN(C)CC2)C3)C(=O)C[C@@H](Cc2ccccc2)C(=O)N1C` [Compound 130, (2S,5S,8S,13S,16R)-16-benzyl-1-(4-chloro-2-((2-(1-methylpiperidin-4-yl)-3-oxoisoindolin-5-yl)oxy)benzyl)-8-(4-chlorobenzyl)-5-(hydroxymethyl)-2,7,13,14-tetramethyl-1,4,7,11,14-pentaazacyclooctadecane-3,6,10,15,18-pentaone], the Max % inhibition stood at 77.42% and the pIC50 is 7.69.
On the same counts, the results for `COC[C@@H]1NC(=O)[C@H](C)N(Cc2ccc(Cl)cc2Oc2ccc(-c3nnc4n3CCN(C(=O)[C@H]3CCNC3)C4)cc2)C(=O)C[C@@H](Cc2ccccc2)C(=O)N(C)[C@@H](C)CNC(=O)C[C@H](Cc2ccc(Cl)cc2)N(C)C1=O` [Compound 131, (2S,5S,8S,13S,16R)-16-benzyl-1-(4-chloro-2-(4-(7-((S)-pyrrolidine-3-carbonyl)-5,6,7,8-tetrahydro-[1,2,4]triazolo[4,3-a]pyrazin-3-yl)phenoxy)benzyl)-8-(4-chlorobenzyl)-5-(methoxymethyl)-2,7,13,14-tetramethyl-1,4,7,11,14-pentaazacyclooctadecane-3,6,10,15,18-pentaone] are 90.72% and 8.00.
In the same order, the values of `COC[C@@H]1NC(=O)[C@H](C)N(Cc2ccc(Cl)cc2Oc2ccc(-c3cnc4n3CCN(C(=O)C(C)C)C4)cc2)C(=O)C[C@@H](Cc2ccccc2)C(=O)N(C)[C@@H](C)CNC(=O)C[C@H](Cc2ccc(Cl)cc2)N(C)C1=O` [Compound 132, (2S,5S,8S,13S,16R)-16-benzyl-1-(4-chloro-2-(4-(7-isobutyryl-5,6,7,8-tetrahydroimidazo[1,2-a]pyrazin-3-yl)phenoxy)benzyl)-8-(4-chlorobenzyl)-5-(methoxymethyl)-2,7,13,14-tetramethyl-1,4,7,11,14-pentaazacyclooctadecane-3,6,10,15,18-pentaone] are 71.97% and 8.14.
Take `COC[C@@H]1NC(=O)[C@H](C)N(Cc2ccc(Cl)cc2Oc2ccc(-c3cnc4n3CCN(C(=O)C3CCOC3)C4)cc2)C(=O)C[C@@H](Cc2ccccc2)C(=O)N(C)[C@@H](C)CNC(=O)C[C@H](Cc2ccc(Cl)cc2)N(C)C1=O` (stereo partly drawn) [Compound 133, (2S,5S,8S,13S,16R)-16-benzyl-1-(4-chloro-2-(4-(7-(tetrahydrofuran-3-carbonyl)-5,6,7,8-tetrahydroimidazo[1,2-a]pyrazin-3-yl)phenoxy)benzyl)-8-(4-chlorobenzyl)-5-(methoxymethyl)-2,7,13,14-tetramethyl-1,4,7,11,14-pentaazacyclooctadecane-3,6,10,15,18-pentaone]: the Max % inhibition came out at 93.15% and the pIC50 is 8.24.
In the same order, the values of `COC[C@@H]1NC(=O)[C@H](C)N(Cc2ccc(Cl)cc2Oc2ccc(-n3nnc(CN(C)C)c3C)cc2)C(=O)C[C@@H](Cc2ccccc2)C(=O)N(C)[C@@H](C)CNC(=O)C[C@H](Cc2ccc(Cl)cc2)N(C)C1=O.O=CO` [Compound 134, (2S,5S,8S,13S,16R)-16-benzyl-1-(4-chloro-2-(4-(4-((dimethylamino)methyl)-5-methyl-1H-1,2,3-triazol-1-yl)phenoxy)benzyl)-8-(4-chlorobenzyl)-5-(methoxymethyl)-2,7,13,14-tetramethyl-1,4,7,11,14-pentaazacyclooctadecane-3,6,10,15,18-pentaone formate] are 98.77% and 7.40.
On the same counts, the results for `COC[C@@H]1NC(=O)[C@H](C)N(Cc2ccc(Cl)cc2Oc2ccc(-c3cncc(C4CN(C)CCN4C)c3)cc2)C(=O)C[C@@H](Cc2ccccc2)C(=O)N(C)[C@@H](C)CNC(=O)C[C@H](Cc2ccc(Cl)cc2)N(C)C1=O` (stereo partly drawn) [Compound 135, (2S,5S,8S,13S,16R)-16-benzyl-1-(4-chloro-2-(4-(5-(1,4-dimethylpiperazin-2-yl)pyridin-3-yl)phenoxy)benzyl)-8-(4-chlorobenzyl)-5-(methoxymethyl)-2,7,13,14-tetramethyl-1,4,7,11,14-pentaazacyclooctadecane-3,6,10,15,18-pentaone] are 58.33% and 8.03.
On the same counts, the results for `COC[C@@H]1NC(=O)[C@H](C)N(Cc2ccc(Cl)cc2Oc2ccc(-c3cncc(C4=CCNCC4)c3)cc2)C(=O)C[C@@H](Cc2ccccc2)C(=O)N(C)[C@@H](C)CNC(=O)C[C@H](Cc2ccc(Cl)cc2)N(C)C1=O` [Compound 136, (2S,5S,8S,13S,16R)-16-benzyl-1-(4-chloro-2-(4-(1′,2′,3′,6′-tetrahydro-[3,4′-bipyridin]-5-yl)phenoxy)benzyl)-8-(4-chlorobenzyl)-5-(methoxymethyl)-2,7,13,14-tetramethyl-1,4,7,11,14-pentaazacyclooctadecane-3,6,10,15,18-pentaone] are 96.16% and 8.30.
Regarding `COC[C@@H]1NC(=O)[C@H](C)N(Cc2ccc(Cl)cc2Oc2ccc(-c3cncc(C4CCNCC4)c3)cc2)C(=O)C[C@@H](Cc2ccccc2)C(=O)N(C)[C@@H](C)CNC(=O)C[C@H](Cc2ccc(Cl)cc2)N(C)C1=O` [Compound 137, (2S,5S,8S,13S,16R)-16-benzyl-1-(4-chloro-2-(4-(5-(piperidin-4-yl)pyridin-3-yl)phenoxy)benzyl)-8-(4-chlorobenzyl)-5-(methoxymethyl)-2,7,13,14-tetramethyl-1,4,7,11,14-pentaazacyclooctadecane-3,6,10,15,18-pentaone], the Max % inhibition was found to be 90.76% and the pIC50 was 8.08.
`COC[C@@H]1NC(=O)[C@H](C)N(Cc2ccc(Cl)cc2Oc2ccc(-c3cnc(CN4CCCC4)n3C)cc2)C(=O)C[C@@H](Cc2ccccc2)C(=O)N(C)[C@@H](C)CNC(=O)C[C@H](Cc2ccc(Cl)cc2)N(C)C1=O` [Compound 138, (2S,5S,8S,13S,16R)-16-benzyl-1-(4-chloro-2-(4-(1-methyl-2-(pyrrolidin-1-ylmethyl)-1H-imidazol-5-yl)phenoxy)benzyl)-8-(4-chlorobenzyl)-5-(methoxymethyl)-2,7,13,14-tetramethyl-1,4,7,11,14-pentaazacyclooctadecane-3,6,10,15,18-pentaone]: the Max % inhibition turned out to be 98.02% and the pIC50 is 8.82.
Consider `C[C@H]1CNC(=O)C[C@H](Cc2ccc(Cl)cc2)N(C)C(=O)[C@H](CO)NC(=O)[C@H](C)N(Cc2ccc(Cl)cc2Oc2ccc3c(c2)C(=O)N(C2CCN(CC4CC4)CC2)C3)C(=O)C[C@@H](Cc2ccccc2)C(=O)N1C` [Compound 139, (2S,5S,8S,13S,16R)-16-benzyl-1-(4-chloro-2-((2-(1-(cyclopropylmethyl)piperidin-4-yl)-3-oxoisoindolin-5-yl)oxy)benzyl)-8-(4-chlorobenzyl)-5-(hydroxymethyl)-2,7,13,14-tetramethyl-1,4,7,11,14-pentaazacyclooctadecane-3,6,10,15,18-pentaone], for which the Max % inhibition amounted to 65.69% and the pIC50 is 8.24.
